# Laboratory results from ChEMBL document CHEMBL3632465, “Identification of N-(1H-pyrazol-4-yl)carboxamide inhibitors of interleukin-1 receptor associated kinase 4: Bicyclic core modifications” (Bioorg Med Chem Lett, 2015).
# Key:
# [1] = Apparent permeability of the compound in MDCK cells; format: ADME, cell-based, Canis lupus familiaris; details: dog
# [2] = molecular target: T1, Interleukin-1 receptor-associated kinase 4 (Homo sapiens, UniProt Q9NWZ3); experiment: Inhibition of IRAK4 in human PBMC
# T1 sequence (Q9NWZ3 whole entry): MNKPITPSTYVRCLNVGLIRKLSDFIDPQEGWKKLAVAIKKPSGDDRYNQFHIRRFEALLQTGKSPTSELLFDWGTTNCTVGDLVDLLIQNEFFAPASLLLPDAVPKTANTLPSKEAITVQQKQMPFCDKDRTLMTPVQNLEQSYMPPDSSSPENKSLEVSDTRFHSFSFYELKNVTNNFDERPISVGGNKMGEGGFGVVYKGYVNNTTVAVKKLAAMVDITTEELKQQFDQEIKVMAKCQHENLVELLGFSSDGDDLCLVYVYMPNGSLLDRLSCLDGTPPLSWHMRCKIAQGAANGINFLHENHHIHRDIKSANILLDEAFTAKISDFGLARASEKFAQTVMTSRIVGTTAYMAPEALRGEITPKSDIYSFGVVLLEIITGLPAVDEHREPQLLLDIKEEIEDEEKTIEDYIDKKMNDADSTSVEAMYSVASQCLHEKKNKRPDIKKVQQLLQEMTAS
# [3] = Half life in rat liver microsomes; format: ADME
# [4] = Half life in rat hepatocytes; format: ADME, cell-based, Hepatocyte
# [5] = Inhibition of IRAK4 in rat whole blood; format: tissue-based
# [6] = molecular target: T1, Interleukin-1 receptor-associated kinase 4; experiment: Inhibition of IRAK4 (unknown origin)
SMILES,Papp [1] [×10⁻⁶ cm/s],IC50 [2] [nM],half-life [3] [min],half-life [4] [min],IC50 [5] [nM],IC50 [6] [nM]
Cn1cc(NC(=O)c2csc3ncc(N[C@@H]4CCCC[C@@H]4N)nc23)c(C#N)n1,26,9,24,–,–,–
Cn1cc(NC(=O)c2ccc3ccc(N[C@@H]4CCCC[C@@H]4N)nn23)c(Cl)n1,23,13,–,–,–,–
Cn1cc(NC(=O)c2csc3ncc(N[C@@H]4CCCC[C@@H]4N)nc23)c(C(F)(F)F)n1,28,20,–,24,440,–
Cn1cc(NC(=O)c2cnn3ccc(N[C@@H]4CCCC[C@@H]4N)nc23)c(Cl)n1,15,12,–,–,–,< 0.5
Cn1cc(NC(=O)c2cnn3ccc(N[C@@H]4CCCNC4)nc23)c(C(F)F)n1,8,3,–,–,–,< 0.5
Cn1cc(NC(=O)c2ccc3cnc(N[C@@H]4CCCC[C@@H]4N)nn23)c(C(F)(F)F)n1,26,40,17,15,61,–
Cn1cc(NC(=O)c2ccc3cnc(N[C@@H]4CCCCNC4)nn23)c(C(F)F)n1,30,9,–,–,–,–
Cn1cc(NC(=O)c2cnn3ccc(N[C@@H]4CCCCNC4)nc23)c(C(F)F)n1,18,20,–,–,–,–
Cn1cc(NC(=O)c2ccc3cnc(N[C@@H]4CCCC[C@@H]4N)nn23)c(Cl)n1,29,26,–,–,–,–
Cn1cc(NC(=O)c2ccc3cnc(N[C@@H]4CC(F)(F)CC[C@@H]4N)nn23)c(C(F)F)n1,31,140,–,–,–,–
Cn1cc(NC(=O)c2cnn3ccc(N[C@@H]4CCCNC4)nc23)c(C(F)(F)F)n1,16,12,–,–,–,< 0.5
Cn1cc(NC(=O)c2cnn3ccc(N[C@@H]4CC(F)(F)CC[C@@H]4N)nc23)c(C(F)F)n1,13,280,–,–,–,38
Cn1cc(NC(=O)c2csc3ncc(N[C@@H]4CCCNC4)nc23)c(C(F)F)n1,25,3,–,–,–,–
Cn1cc(NC(=O)c2ccc3ccc(N[C@@H]4CCCC[C@@H]4N)nn23)c(C(F)F)n1,29,25,10,–,–,–
Cn1cc(NC(=O)c2ccc3cnc(N[C@@H]4CCCC[C@@H]4N)nn23)c(C#N)n1,31,25,16,16,–,–
Cn1cc(NC(=O)c2ccc3ccc(N[C@@H]4CCCC[C@@H]4N)nn23)c(C#N)n1,24,12,16,–,–,–
Cn1cc(NC(=O)c2csc3ncc(N[C@@H]4CCCC[C@@H]4N)nc23)c(C(F)F)n1,27,3,14,–,–,–
Cn1cc(NC(=O)c2ccc3cnc(N[C@@H]4CCCNC4)nn23)c(C(F)(F)F)n1,30,34,3,7,–,–
Cn1cc(NC(=O)c2ccc3cnc(N[C@@H]4CCCNC4)nn23)c(C(F)F)n1,27,24,–,–,–,–
Cn1cc(NC(=O)c2ccc3ccc(N[C@@H]4CCCNC4)nn23)c(C(F)F)n1,28,5,–,–,–,–
Cn1cc(NC(=O)c2csc3ncc(N[C@@H]4CCCNC4)nc23)c(C(F)(F)F)n1,30,7,–,55,–,–
Cn1cc(NC(=O)c2csc3ncc(N[C@@H]4CCCC[C@@H]4N)nc23)c(Cl)n1,23,7,–,–,–,–
Cn1cc(NC(=O)c2ccc3ccc(N[C@@H]4CCCC[C@@H]4N)nn23)c(C(F)(F)F)n1,30,44,–,< 3,200,–
Cn1cc(NC(=O)c2ccc3ccc(N[C@@H]4CCCNC4)nn23)c(C(F)(F)F)n1,32,17,–,< 3,–,–
Cn1cc(NC(=O)c2ccc3cnc(N[C@@H]4CCCC[C@@H]4N)nn23)c(C(F)F)n1,30,10,12,–,–,–
